Calls of active or inactive are those of the source. The rule behind the calls is not given here.
Assays:
D(4) dopamine receptor = biological target: T1, D(4) dopamine receptor (Homo sapiens, UniProt P21917); assay: Displacement of [3H]nemonapride from human cloned dopamine D4.2 receptor
T1 sequence (P21917 whole entry): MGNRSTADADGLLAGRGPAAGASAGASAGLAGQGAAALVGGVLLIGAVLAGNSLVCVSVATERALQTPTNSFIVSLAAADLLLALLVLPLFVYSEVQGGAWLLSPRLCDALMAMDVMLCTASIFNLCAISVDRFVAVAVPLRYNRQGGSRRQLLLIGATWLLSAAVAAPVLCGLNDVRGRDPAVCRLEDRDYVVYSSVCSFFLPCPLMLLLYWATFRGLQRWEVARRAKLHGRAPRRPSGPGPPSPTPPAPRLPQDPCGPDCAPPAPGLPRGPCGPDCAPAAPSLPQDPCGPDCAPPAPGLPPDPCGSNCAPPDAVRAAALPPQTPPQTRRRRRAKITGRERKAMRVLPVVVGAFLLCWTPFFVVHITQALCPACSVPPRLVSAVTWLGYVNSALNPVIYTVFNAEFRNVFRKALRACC

[1] = biological target: T2, D(4) dopamine receptor (Homo sapiens) (UniProt P21917); assay: Antagonist activity at dopamine D4.2 receptor assessed as inhibition of dopamine-induced effect at 5 uM; format: functional
T2 sequence (whole entry): T1 sequence (P21917 whole entry)

[2] = biological target: 5-hydroxytryptamine receptor 2A (Rattus norvegicus) (UniProt P14842); assay: Displacement of [3H]ketanserin from rat 5HT2A receptor at 1 uM
[3] = biological target: D(2) dopamine receptor (Homo sapiens) (UniProt P14416); assay: Displacement of [3H]spiperone from human cloned dopamine D2L receptor at 1 uM
[4] = biological target: 5-hydroxytryptamine receptor 2A (Rattus norvegicus, UniProt P14842); assay: Displacement of [3H]ketanserin from rat 5HT2A receptor
[5] = biological target: T2, D(4) dopamine receptor (Homo sapiens); assay: Displacement of [3H]nemonapride from human cloned dopamine D4.2 receptor at 1 uM
[6] = biological target: 5-hydroxytryptamine receptor 2A (Homo sapiens) (UniProt P28223); assay: Antagonist activity at 5HT2A assessed as inhibition of serotonin-induced effect at 5 uM; format: functional
5-hydroxytryptamine receptor 2A (Homo sapiens), sequence (P28223 whole entry): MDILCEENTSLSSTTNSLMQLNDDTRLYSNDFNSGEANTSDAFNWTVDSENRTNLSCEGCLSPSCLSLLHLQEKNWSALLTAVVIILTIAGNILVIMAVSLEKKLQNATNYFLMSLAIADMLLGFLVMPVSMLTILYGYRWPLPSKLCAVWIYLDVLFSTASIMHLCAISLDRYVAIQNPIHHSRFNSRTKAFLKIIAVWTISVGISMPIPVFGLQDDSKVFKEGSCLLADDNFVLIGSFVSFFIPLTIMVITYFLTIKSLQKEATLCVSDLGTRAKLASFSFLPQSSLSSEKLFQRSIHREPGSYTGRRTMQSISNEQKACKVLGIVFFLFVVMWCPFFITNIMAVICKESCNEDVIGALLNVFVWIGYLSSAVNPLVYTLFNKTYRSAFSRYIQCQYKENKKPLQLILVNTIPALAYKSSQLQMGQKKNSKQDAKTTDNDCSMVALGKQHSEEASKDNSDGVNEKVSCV

5-hydroxytryptamine receptor 2A, sequence (P14842 whole entry): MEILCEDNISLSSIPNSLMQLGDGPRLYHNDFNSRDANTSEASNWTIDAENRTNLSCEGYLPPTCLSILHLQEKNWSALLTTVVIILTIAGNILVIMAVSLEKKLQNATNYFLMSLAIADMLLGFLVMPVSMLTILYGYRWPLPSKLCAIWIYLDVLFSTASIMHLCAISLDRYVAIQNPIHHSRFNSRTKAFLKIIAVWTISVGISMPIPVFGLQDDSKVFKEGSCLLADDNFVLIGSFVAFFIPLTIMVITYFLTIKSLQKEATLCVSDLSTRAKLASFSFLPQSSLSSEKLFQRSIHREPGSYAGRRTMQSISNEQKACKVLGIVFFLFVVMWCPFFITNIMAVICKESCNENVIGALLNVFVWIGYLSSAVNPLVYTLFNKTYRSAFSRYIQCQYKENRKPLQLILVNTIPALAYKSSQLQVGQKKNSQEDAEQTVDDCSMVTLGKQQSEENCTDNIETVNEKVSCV
5-hydroxytryptamine receptor 2A (Rattus norvegicus), sequence (P14842 whole entry): as above
D(2) dopamine receptor (Homo sapiens), sequence (P14416 whole entry): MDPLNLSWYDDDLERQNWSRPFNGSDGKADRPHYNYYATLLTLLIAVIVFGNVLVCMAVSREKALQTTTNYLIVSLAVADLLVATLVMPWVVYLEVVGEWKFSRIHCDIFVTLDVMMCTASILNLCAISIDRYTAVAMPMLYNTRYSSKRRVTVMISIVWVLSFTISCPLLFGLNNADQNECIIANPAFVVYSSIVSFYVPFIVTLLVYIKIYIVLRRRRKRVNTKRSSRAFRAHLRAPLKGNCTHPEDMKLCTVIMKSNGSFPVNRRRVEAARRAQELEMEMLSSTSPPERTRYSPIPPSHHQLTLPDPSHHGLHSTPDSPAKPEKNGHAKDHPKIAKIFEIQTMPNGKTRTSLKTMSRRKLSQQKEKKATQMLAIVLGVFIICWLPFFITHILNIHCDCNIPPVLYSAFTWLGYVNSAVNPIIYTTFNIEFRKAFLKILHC

SMILES	Ki (D(4) dopamine receptor)	Activity [1]	inhibition [2]	inhibition [3]	Ki [4]	inhibition [5]	Activity [6]
O=C(NC1CCN(Cc2cccc(C(F)(F)F)c2)CC1)c1ccc2ccccc2c1	103 nM	Active	15%	9%	–	–	–
O=C(NC1CCN(Cc2ccncc2)CC1)c1ccc2ccccc2c1	–	–	–	5%	695 nM	32%	–
O=C(NC1CCN(Cc2c(F)c(F)c(F)c(F)c2F)CC1)c1ccc2ccccc2c1	–	–	4%	0%	–	0%	–
O=C(NC1CCN(Cc2ccc(Br)cc2)CC1)c1ccc2ccccc2c1	34 nM	Active	–	–	223 nM	–	Active
O=C(NC1CCN(Cc2cccc(Br)c2)CC1)c1cccc2ccccc12	66 nM	Active	–	–	462 nM	–	Active
O=C(NC1CCN(Cc2cccc(Br)c2)CC1)c1ccc2ccccc2c1	36 nM	Active	–	–	53 nM	–	Active
O=C(NC1CCN(Cc2ccc([N+](=O)[O-])cc2)CC1)c1ccc2ccccc2c1	181 nM	Active	–	0%	278 nM	–	Active
Cc1ccccc1CN1CCC(NC(=O)c2ccc3ccccc3c2)CC1	26 nM	Active	–	6%	175 nM	–	Active
COc1ccc(CN2CCC(NC(=O)c3ccc4ccccc4c3)CC2)cc1	31 nM	Active	–	18%	151 nM	–	Active
O=C(NC1CCN(Cc2ccccc2Cl)CC1)c1cccc2ccccc12	329 nM	Active	–	–	–	–	–
O=C(NC1CCN(Cc2cccnc2)CC1)c1ccc2ccccc2c1	326 nM	–	–	4%	524 nM	–	–
O=C(NC1CCN(Cc2ccccc2Br)CC1)c1cccc2ccccc12	–	–	–	8%	–	35%	–
O=C(NC1CCN(Cc2ccc([N+](=O)[O-])cc2)CC1)c1cccc2ccccc12	–	–	20%	0%	–	42%	–
Cc1cccc(CN2CCC(NC(=O)c3cccc4ccccc34)CC2)c1	77 nM	Active	38%	11%	–	–	–
O=C(NC1CCN(Cc2ccc(C(F)(F)F)cc2)CC1)c1cccc2ccccc12	96 nM	Active	32%	0%	–	–	–
O=C(NC1CCN(Cc2ccccc2)CC1)c1cccc2ccccc12	–	Active	–	–	–	–	Active
O=C(NC1CCN(Cc2cccc(Cl)c2)CC1)c1ccc2ccccc2c1	54 nM	Active	–	29%	133 nM	–	Active
Cc1ccc(CN2CCC(NC(=O)c3ccc4ccccc4c3)CC2)cc1	21 nM	Active	–	42%	222 nM	–	Active

SMILES	Ki (D(4) dopamine receptor)	Activity [1]	inhibition [2]	inhibition [3]	Ki [4]	inhibition [5]	Activity [6]
O=C(NC1CCN(Cc2ccc(Cl)cc2)CC1)c1cccc2ccccc12	43 nM	Active	23%	0%	–	–	–
COc1cccc(CN2CCC(NC(=O)c3ccc4ccccc4c3)CC2)c1	16 nM	Active	–	0%	158 nM	–	Active
O=C(NC1CCN(Cc2ccc(Cl)cc2)CC1)c1ccc2ccccc2c1	37 nM	Active	–	15%	242 nM	–	Active
O=C(NC1CCN(Cc2ccc(C(F)(F)F)cc2)CC1)c1ccc2ccccc2c1	84 nM	–	36%	0%	–	–	–
COc1ccc(CN2CCC(NC(=O)c3cccc4ccccc34)CC2)cc1	223 nM	Active	–	3%	–	–	–
O=C(NC1CCN(Cc2c(F)c(F)c(F)c(F)c2F)CC1)c1cccc2ccccc12	–	–	–	0%	228 nM	0%	–
Cc1cccc(CN2CCC(NC(=O)c3ccc4ccccc4c3)CC2)c1	11 nM	Active	–	20%	87 nM	–	Active
O=C(NC1CCN(Cc2ccc(Br)cc2)CC1)c1cccc2ccccc12	44 nM	Active	–	4%	–	–	–
O=C(NC1CCN(Cc2ccccc2)CC1)c1ccc2ccccc2c1	–	Active	–	–	–	–	Active
Cc1ccc(CN2CCC(NC(=O)c3cccc4ccccc34)CC2)cc1	69 nM	Active	33%	13%	–	–	–
Cc1ccccc1CN1CCC(NC(=O)c2cccc3ccccc23)CC1	155 nM	Active	26%	9%	–	–	–
O=C(NC1CCN(Cc2cccc(Cl)c2)CC1)c1cccc2ccccc12	116 nM	Active	49%	0%	–	–	–
O=C(NC1CCN(Cc2cccc(C(F)(F)F)c2)CC1)c1cccc2ccccc12	119 nM	Active	–	0%	–	–	–
O=C(NC1CCN(Cc2ccccc2Cl)CC1)c1ccc2ccccc2c1	–	–	–	0%	133 nM	48%	Active
COc1cccc(CN2CCC(NC(=O)c3cccc4ccccc34)CC2)c1	168 nM	Active	23%	0%	–	–	–
O=C(NC1CCN(Cc2ccccn2)CC1)c1ccc2ccccc2c1	299 nM	–	–	5%	545 nM	–	–
O=C(NC1CCN(Cc2ccccc2Br)CC1)c1ccc2ccccc2c1	–	–	47%	0%	–	31%	–

Reference: ChEMBL document CHEMBL1146384, “Synthesis and in vitro binding studies of substituted piperidine naphthamides. Part II: Influence of the substitution on the benzyl moiety on the affinity for D2L, D4.2, and 5-HT2A receptors” (Bioorg Med Chem Lett, 2007)
